Our source for the EC50 values is US20230406843A1, “Progranulin Modulators and Methods of Using the Same” (ARKUDA THERAPEUTICS, priority 2020, published 2023).

Structures are written as SMILES. pEC50: −log10 of the molar value.

One assay relates to progranulin. The assay is described as follows: Progranulin induction cellular assay (ELISA of secreted mouse PGRN). It is filed as cell-based. The conditions noted are these: Mus musculus, BV-2, read-out: EC50 μM. In a few lines:
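Secreted mouse PGRN in culture medium is measured by ELISA. Cells tested are BV-2, primary cortical neurons and primary microglia. BV-2 cells are plated a day ahead, allowed 1 h to attach, then incubated 16 h.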
For orientation: An ELISA detects its analyte on a solid surface through an enzyme-linked reagent.
In general, EC50 refers to the concentration that produces a half-maximal response. Regarding `COC[C@]1(N)CC[C@H](C(=O)N2CCc3ccccc3[C@@H]2c2ccc(F)cc2)OC1` [Compound 5219, ((2R,5R)-5-amino-5-(methoxymethyl)tetrahydro-2H-pyran-2-yl)((S)-1-(4-fluorophenyl)-3,4-dihydroisoquinolin-2(1H)-yl)methanone], the EC50 stood at 0.006 µM.

Staying with this assay, now noted: progranulin induction assay; mouse pMG, primary cortical neurons and BV-2 cell lines named, cell type not given; ELISA-based readout; read-out: EC50.
As usually defined, the pEC50 is the EC50 on a negative log10 scale, so that one unit is a factor of ten. Regarding `NCC1COC(C(=O)N2CCc3ccccc3[C@@H]2c2ccc(F)cc2)C1` (mixture of isomers) [Compound 5014, ((2R)-4-(aminomethyl)tetrahydrofuran-2-yl)((S)-1-(4-fluorophenyl)-3,4-dihydroisoquinolin-2(1H)-yl)methanone], the pEC50 was 6.30.

As to `CN(C)[C@@H]1CO[C@@H](C(=O)N2CCc3ccccc3[C@@H]2c2ccc(F)cc2)C[C@@H]1O` [Compound 5085, ((2R,4S,5R)-5-(dimethylamino)-4-hydroxytetrahydro-2H-pyran-2-yl)((S)-1-(4-fluorophenyl)-3,4-dihydroisoquinolin-2(1H)-yl)methanone], the negative-log EC50 (pEC50) is 6.50.

Regarding `N[C@@H]1C[C@H](C(=O)N2CCc3ccccc3[C@@H]2c2ccc(F)cc2)OC[C@H]1O` [Compound 5092, ((2R,4R,5S)-4-amino-5-hydroxytetrahydro-2H-pyran-2-yl)((S)-1-(4-fluorophenyl)-3,4-dihydroisoquinolin-2(1H)-yl)methanone], the pEC50 was 6.74.

`N[C@H]1COC(C(=O)N2CCc3ccccc3[C@@H]2c2ccc(F)cc2)C1` (stereo in doubt) [Compound 5012, ((2R,4R)-4-aminotetrahydrofuran-2-yl)((S)-1-(4-fluorophenyl)-3,4-dihydroisoquinolin-2(1H)-yl)methanone]: the pEC50 was 6.90.

Regarding `N[C@@]1(CO)CC[C@@H](C(=O)N2CCc3ccccc3[C@@H]2c2ccc(F)cc2)OC1` [Compound 5214, ((2S,5R)-5-amino-5-(hydroxymethyl)tetrahydro-2H-pyran-2-yl)((S)-1-(4-fluorophenyl)-3,4-dihydroisoquinolin-2(1H)-yl)methanone], the pEC50 was 7.10.

On to `CCC(=O)N(C)[C@H]1CO[C@@H](C(=O)N2CCc3ccccc3[C@@H]2c2ccc(F)cc2)C[C@@H]1N` [Compound 5517, N-((3R,4S,6R)-4-amino-6-((S)-1-(4-fluorophenyl)-1,2,3,4-tetrahydroisoquinoline-2-carbonyl)tetrahydro-2H-pyran-3-yl)-N-methylpropionamide], for which the pEC50 was 7.92.

With `CC[N-][S@@+2](C)([O-])[C@H]1CO[C@@H](C(=O)N2CCc3ccccc3[C@@H]2c2ccc(F)cc2)C[C@@H]1N` (single isomer, unassigned) [Compound 5557], the pEC50 is 6.28.

For `CCNC[C@@]1(O)CO[C@@H](C(=O)N2CCc3ccccc3[C@@H]2c2ccc(F)cc2)C1` [Compound 5037, ((2R,4R)-4-((ethylamino)methyl)-4-hydroxytetrahydrofuran-2-yl)((S)-1-(4-fluorophenyl)-3,4-dihydroisoquinolin-2(1H)-yl)methanone], the pEC50 is 6.47.

For `CCS(=O)(=O)[C@H]1CO[C@@H](C(=O)N2CCc3ccccc3[C@@H]2c2ccc(F)cc2)C[C@@H]1N` [Compound 5524, ((2R,4S,5R)-4-amino-5-(ethylsulfonyl)tetrahydro-2H-pyran-2-yl)((S)-1-(4-fluorophenyl)-3,4-dihydroisoquinolin-2(1H)-yl)methanone], the pEC50 is 7.80.

Regarding `N[C@H]1C[C@H](C(=O)N2CCc3ccccc3[C@@H]2c2ccc(F)cc2)OC[C@@H]1F` [Compound 5069, ((2R,4S,5R)-4-amino-5-fluorotetrahydro-2H-pyran-2-yl)((S)-1-(4-fluorophenyl)-3,4-dihydroisoquinolin-2(1H)-yl)methanone], the pEC50 is 6.85.

`CC(=O)N1CCN[C@H]2C[C@H](C(=O)N3CCc4ccccc4[C@@H]3c3ccc(F)cc3)OC[C@@H]21` (single isomer, unassigned) [Compound 5543]: the pEC50 was 8.52.

Consider `CC[C@@H]1CN[C@H]2C[C@H](C(=O)N3CCc4ccccc4[C@@H]3c3ccc(F)cc3)OC[C@@H]2O1` [Compound 5564, ((3R,4aR,7R,8aS)-3-ethyloctahydropyrano[3,4-b][1,4]oxazin-7-yl)((S)-1-(4-fluorophenyl)-3,4-dihydroisoquinolin-2(1H)-yl)methanone], for which the pEC50 is 8.40.

On to `N[C@H]1C[C@H](C(=O)N2CCc3ccccc3[C@@H]2c2ccc(F)cc2)OC[C@@H]1NC(=O)C(F)(F)F` [Compound 5514, N-((3R,4S,6R)-4-amino-6-((S)-1-(4-fluorophenyl)-1,2,3,4-tetrahydroisoquinoline-2-carbonyl)tetrahydro-2H-pyran-3-yl)-2,2,2-trifluoroacetamide], for which the pEC50 is 7.62.

Turning to `O=C([C@H]1C[C@@H]2NC[C@H](C(F)(F)F)O[C@H]2CO1)N1CCc2ccccc2[C@@H]1c1ccc(F)cc1` [Compound 5474, ((S)-1-(4-fluorophenyl)-3,4-dihydroisoquinolin-2(1H)-yl)((3R,4aR,7R,8aS)-3-(trifluoromethyl)octahydropyrano[3,4-b][1,4]oxazin-7-yl)methanone], the pEC50 is 5.82.

Consider `CCO[C@H]1CO[C@@H](C(=O)N2CCc3ccccc3[C@@H]2c2ccc(F)cc2)C[C@@H]1NC` [Compound 5509, ((2R,4S,5R)-5-ethoxy-4-(methylamino)tetrahydro-2H-pyran-2-yl)((S)-1-(4-fluorophenyl)-3,4-dihydroisoquinolin-2(1H)-yl)methanone], for which the pEC50 was 9.00.

For `O=C([C@@H]1CC[C@H](NCCO)CO1)N1CCc2ccccc2[C@@H]1c1ccc(F)cc1` [Compound 5033, ((S)-1-(4-fluorophenyl)-3,4-dihydroisoquinolin-2(1H)-yl)((2S,5S)-5-((2-hydroxyethyl)amino)tetrahydro-2H-pyran-2-yl)methanone], the pEC50 was 6.79.

Turning to `O=C([C@H]1OCCNC[C@H]1O)N1CCc2ccccc2[C@@H]1c1ccc(F)cc1` (single isomer, unassigned) [Compound 5246], the pEC50 was 7.00.

Consider `NC[C@@]1(O)COC(C(=O)N2CCc3ccccc3[C@@H]2c2ccc(F)cc2)C1` (single isomer, unassigned) [Compound 5004], for which the pEC50 was 6.79.

As for `CCN[C@H]1C[C@H](C(=O)N2CCc3ccccc3[C@@H]2c2ccc(F)cc2)OC[C@@H]1OCC` [Compound 5510, ((2R,4S,5R)-5-ethoxy-4-(ethylamino)tetrahydro-2H-pyran-2-yl)((S)-1-(4-fluorophenyl)-3,4-dihydroisoquinolin-2(1H)-yl)methanone], the pEC50 was 8.70.

Consider `N[C@@H]1CO[C@H](C(=O)N2CCc3ccccc3[C@@H]2c2ccc(F)cc2)C[C@H]1O` [Compound 5072, ((2S,4R,5R)-5-amino-4-hydroxytetrahydro-2H-pyran-2-yl)((S)-1-(4-fluorophenyl)-3,4-dihydroisoquinolin-2(1H)-yl)methanone], for which the negative-log EC50 (pEC50) was 7.09.

On to `NC1CCC(C(=O)N2CCc3ccccc3[C@@H]2c2ccc(F)cc2F)OC1` (stereo in doubt) [Compound 5018, ((2R,5S)-5-aminotetrahydro-2H-pyran-2-yl)((R)-1-(2,4-difluorophenyl)-3,4-dihydroisoquinolin-2(1H)-yl)methanone], for which the pEC50 was < 5.00.

For `O=C([C@H]1C[C@@H]2NC[C@@H](C(F)(F)F)O[C@H]2CO1)N1CCc2ccccc2[C@@H]1c1ccc(F)cc1` [Compound 5473, ((S)-1-(4-fluorophenyl)-3,4-dihydroisoquinolin-2(1H)-yl)((3S,4aR,7R,8aS)-3-(trifluoromethyl)octahydropyrano[3,4-b][1,4]oxazin-7-yl)methanone], the pEC50 is 6.21.

With `N[C@H]1COC(C(=O)N2CCc3ccccc3[C@@H]2c2ccc(F)cc2)C1` (stereo in doubt) [Compound 5010, ((2S,4R)-4-aminotetrahydrofuran-2-yl)((S)-1-(4-fluorophenyl)-3,4-dihydroisoquinolin-2(1H)-yl)methanone], the pEC50 was 6.24.

For `CO[C@@H]1CO[C@@H](C(=O)N2CCc3ccccc3[C@@H]2c2ccc(F)cc2F)C[C@@H]1N` [Compound 5261], the pEC50 is 7.10.

As for `CCN[C@H]1C[C@H](C(=O)N2CCc3ccccc3[C@@H]2c2ccc(F)cc2)OC[C@@H]1OC` [Compound 5504, ((2R,4S,5R)-4-(ethylamino)-5-methoxytetrahydro-2H-pyran-2-yl)((S)-1-(4-fluorophenyl)-3,4-dihydroisoquinolin-2(1H)-yl)methanone], the pEC50 was 8.05.

Regarding `N[C@@H]1CO[C@H](C(=O)N2CCc3ccccc3[C@@H]2c2ccc(F)cc2)C[C@@H]1O` [Compound 5053, ((2S,4S,5R)-5-amino-4-hydroxytetrahydro-2H-pyran-2-yl)((S)-1-(4-fluorophenyl)-3,4-dihydroisoquinolin-2(1H)-yl)methanone], the negative-log EC50 (pEC50) was 7.11.

Consider `N[C@@H]1C[C@H](C(=O)N2CCc3ccccc3[C@@H]2c2ccc(F)cc2)OC[C@H]1F` [Compound 5251, ((2R,4R,5S)-4-amino-5-fluorotetrahydro-2H-pyran-2-yl)((S)-1-(4-fluorophenyl)-3,4-dihydroisoquinolin-2(1H)-yl)methanone], for which the pEC50 was 6.73.

For `N[C@@H]1CO[C@@H](C(=O)N2CCc3ccccc3[C@@H]2c2ccc(F)cc2)C[C@@H]1OC(F)F` [Compound 5089, ((2R,4S,5R)-5-amino-4-(difluoromethoxy)tetrahydro-2H-pyran-2-yl)((S)-1-(4-fluorophenyl)-3,4-dihydroisoquinolin-2(1H)-yl)methanone], the pEC50 was 7.21.

With `O=C([C@H]1CC[C@@H](NCCO)CO1)N1CCc2ccccc2[C@@H]1c1ccc(F)cc1` [Compound 5211, ((S)-1-(4-fluorophenyl)-3,4-dihydroisoquinolin-2(1H)-yl)((2R,5R)-5-((2-hydroxyethyl)amino)tetrahydro-2H-pyran-2-yl)methanone], the pEC50 was 6.68.

Regarding `N[C@H]1C[C@@H](C(=O)N2CCc3ccccc3[C@@H]2c2ccc(F)cc2)OC[C@@H]1O` [Compound 5083, ((2S,4S,5R)-4-amino-5-hydroxytetrahydro-2H-pyran-2-yl)((S)-1-(4-fluorophenyl)-3,4-dihydroisoquinolin-2(1H)-yl)methanone], the pEC50 is 7.08.
